What was measured:
Assay in all cases: relative viability (nuclei count vs DMSO), 5 days (fraction); higher = more cells survive
VX-702 + Pemetrexed = compound: NC(=O)c1ccc(N(C(N)=O)c2c(F)cccc2F)nc1-c1ccc(F)cc1F [VX-702] + Nc1nc2[nH]cc(CCc3ccc(C(=O)N[C@@H](CCC(=O)O)C(=O)O)cc3)c2c(=O)[nH]1 [Pemetrexed] (partner 0.2 µM)
Outline: (§1)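 Five library-drug doses in √10 steps were combined with a fixed anchor-drug dose, or a single drug was given alone, by pin tool to lung cancer cell lines in 1536-well plates the day after seeding. Nuclei were stained and counted after 5 days. Relative viability is the nuclei count in treated wells over that in vehicle wells, taken as the median of duplicate plates.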

Dabrafenib + Pemetrexed = compound: CC(C)(C)c1nc(-c2cccc(NS(=O)(=O)c3c(F)cccc3F)c2F)c(-c2ccnc(N)n2)s1 [Dabrafenib] + Nc1nc2[nH]cc(CCc3ccc(C(=O)N[C@@H](CCC(=O)O)C(=O)O)cc3)c2c(=O)[nH]1 [Pemetrexed] (partner 0.2 µM)
Outline: as §1

VX-702 + Foretinib = compound: NC(=O)c1ccc(N(C(N)=O)c2c(F)cccc2F)nc1-c1ccc(F)cc1F [VX-702] + COc1cc2c(Oc3ccc(NC(=O)C4(C(=O)Nc5ccc(F)cc5)CC4)cc3F)ccnc2cc1OCCCN1CCOCC1 [Foretinib] (partner 0.25 µM)
Outline: as §1

VX-702 + Trametinib = compound: NC(=O)c1ccc(N(C(N)=O)c2c(F)cccc2F)nc1-c1ccc(F)cc1F [VX-702] + CC(=O)Nc1cccc(-n2c(=O)n(C3CC3)c(=O)c3c(Nc4ccc(I)cc4F)n(C)c(=O)c(C)c32)c1 [Trametinib] (partner 0.02 µM)
Outline: as §1

| Cell Line | relative viability (VX-702 + Pemetrexed; first compound 0.02 µM) | relative viability (VX-702 + Pemetrexed; first compound 0.2 µM) | relative viability (VX-702 + Pemetrexed; first compound 0.6325 µM) | relative viability (VX-702 + Pemetrexed; first compound 2 µM) | relative viability (Dabrafenib + Pemetrexed; first compound 0.009487 µM) | relative viability (Dabrafenib + Pemetrexed; first compound 0.03 µM) | relative viability (Dabrafenib + Pemetrexed; first compound 0.09487 µM) | relative viability (Dabrafenib + Pemetrexed; first compound 0.3 µM) | relative viability (VX-702 + Foretinib; first compound 0.02 µM) | relative viability (VX-702 + Foretinib; first compound 0.6325 µM) | relative viability (VX-702 + Foretinib; first compound 2 µM) | relative viability (VX-702 + Trametinib; first compound 0.02 µM) | relative viability (VX-702 + Trametinib; first compound 0.2 µM) | relative viability (VX-702 + Trametinib; first compound 0.6325 µM) | relative viability (VX-702 + Trametinib; first compound 2 µM) | relative viability (Dabrafenib + Pemetrexed; first compound 0.003 µM) | relative viability (VX-702 + Foretinib; first compound 0.2 µM) |
| --- | --- | --- | --- | --- | --- | --- | --- | --- | --- | --- | --- | --- | --- | --- | --- | --- | --- |
| NCI-H650 | 1.22 | 0.932 | 0.92 | 0.958 | 0.938 | 0.846 | 0.522 | 0.464 | 1.01 | 1.11 | 1.25 | 0.92 | 0.978 | 1.1 | 1.08 |  |  |
| NCI-H661 | 0.766 | 0.877 | 0.932 | 0.971 | 0.934 | 0.876 | 0.931 | 0.933 | 1.11 | 1.12 | 1.1 | 0.682 | 0.599 | 0.637 | 0.71 | 0.942 | 1.08 |
| NCI-H838 | 0.234 | 0.24 | 0.254 | 0.236 | 0.252 | 0.239 | 0.239 | 0.245 | 1.02 | 1.13 | 1.2 | 0.535 | 0.521 | 0.525 | 0.6 | 0.264 | 1.01 |
| NCI-H1355 | 1.05 | 1.01 | 1.02 | 1.09 | 1.09 | 0.965 | 0.804 | 1.08 | 0.931 | 0.923 | 1.01 | 0.464 | 0.38 | 0.368 | 0.416 |  | 1.01 |
| NCI-H1395 | 0.864 | 0.851 | 0.831 | 1.01 | 0.813 | 0.907 | 0.749 | 0.806 | 0.986 | 0.968 | 1.12 | 1.06 | 1.11 | 1.09 | 1.24 |  | 1.03 |
| NCI-H1437 | 0.345 | 0.261 | 0.318 | 0.324 | 0.304 | 0.318 | 0.324 | 0.321 | 1.31 | 1.35 | 1.41 | 0.519 | 0.447 | 0.464 | 0.497 | 0.338 | 1.3 |
| NCI-H1650 | 0.325 | 0.34 | 0.384 | 0.403 | 0.391 | 0.389 | 0.389 | 0.419 | 1.04 | 1.02 | 1.29 | 0.599 | 0.725 | 0.656 | 0.501 | 0.364 | 1.17 |
| NCI-H1651 | 0.523 | 0.57 | 0.559 | 0.566 | 0.555 | 0.525 | 0.416 | 0.613 | 0.814 | 0.824 | 0.803 | 0.747 | 0.822 | 0.819 | 0.884 | 0.575 | 0.794 |
| NCI-H1666 | 0.869 | 0.869 | 0.89 | 0.808 | 0.864 | 0.877 | 0.97 | 0.865 | 0.992 | 1.02 | 1.06 | 0.89 | 0.819 | 0.883 | 0.739 | 0.787 |  |
| NCI-H1734 | 0.386 | 0.377 | 0.413 | 0.409 | 0.417 | 0.397 | 0.421 | 0.411 | 0.791 | 0.704 | 0.813 | 0.734 | 0.683 | 0.544 | 0.68 |  | 0.729 |
| NCI-H1755 | 0.473 | 0.404 | 0.384 | 0.378 | 0.427 | 0.395 | 0.47 | 0.424 | 0.93 | 0.807 | 0.944 | 0.841 | 0.799 | 0.838 | 0.869 | 0.36 | 0.952 |
| NCI-H1793 | 0.884 |  | 0.806 | 1.06 | 1.08 |  | 0.911 | 1.17 | 0.671 | 0.703 | 0.719 | 0.438 |  | 0.452 | 0.451 |  | 0.705 |
| NCI-H1915 | 0.519 | 0.476 | 0.446 | 0.455 | 0.451 | 0.457 | 0.272 | 0.372 | 1.1 | 1.06 | 1.17 | 0.324 | 0.294 | 0.302 | 0.319 | 0.507 | 1.06 |
| NCI-H1944 | 0.58 | 0.603 | 0.635 | 0.382 | 0.58 | 0.587 | 0.444 | 0.668 | 0.812 | 0.798 | 0.71 | 0.426 | 0.401 | 0.398 | 0.378 | 0.569 | 0.821 |
| NCI-H1975 | 0.312 | 0.296 | 0.301 | 0.287 | 0.282 | 0.272 | 0.28 | 0.292 | 0.969 | 0.943 | 1.09 | 0.383 | 0.35 | 0.29 | 0.329 | 0.304 | 0.915 |
| NCI-H1993 | 0.646 | 0.529 | 0.523 | 0.563 | 0.571 | 0.619 | 0.55 | 0.669 | 0.717 | 0.754 | 0.693 | 0.607 | 0.495 | 0.527 | 0.576 | 0.575 | 0.773 |
| NCI-H2009 | 1.12 | 1.08 | 1.03 | 1.15 | 0.956 | 0.818 | 0.761 | 0.701 | 1.28 | 1.28 | 1.38 | 0.284 | 0.28 | 0.255 | 0.272 | 0.997 | 1.28 |

From the supplement of paper PMC10307832
